Measurements from patent US10913068B2, “Testing device, microfluidic chip and nucleic acid testing method” (Nanyang Technological University, priority 2015, dated 2021).
“And” between values parts separate entries of the source, which are not always exact repeats. Equal values may be shown once. Read-outs that look alike come from different tables or passages of the source.

Key:
[1] = tested on: ALT mRNA; conditions: mouse liver tissue
Procedure: (§1) A short-term (5 days) preclinical drug toxicity experiment was performed on common black laboratory mice (Strain name: C57BL/6J; Age: 5-7 weeks). All experiments were performed in accordance with the National Institutes of Health Guide for the care and use of laboratory animals (NIH Publications No. 80-23, revised 1996) and conducted after approval by the Institutional Animal Care and Use Committee of Houston Methodist Research Institute (HMRI).
(§2) A total of eight mice were divided into two equal groups, with one mouse in each group designated as the control and the remaining three subjected to drug treatment. […] The drug was administered through intraperitoneal route, with the first group having a single dose administered on the 1st day only; and the second group having 3 doses administered on the 1st, 3rd and 5th days. The animals were subsequently euthanized following standard carbon dioxide anaesthesia procedure on the 5th day after final drug administration. The mouse liver tissues were thereafter silated, and cut into equal small pieces (˜20-30 mg) and stored in RNAlater RNA Stabilization Reagent (QIAGEN®, USA) at 4° C. to prevent RNA degradation.
(§3) A liver tissue sample, weighing approximately 20-30 mg, was loaded directly into the tissue lysis chamber. The tissue sample was secured within the chamber when the tissue microhomogenizer attachment was fitted into the opening of the lysis chamber. Subsequently, 250 μL Lysis/Binding buffer was loaded into another 250 μL glass syringe (see FIG. 16, Sample Inlet), and actuated into the tissue lysis chamber at a flow rate of 200 μL/min. For tissue lysis, the microhomogenizer attachment was activated for ˜1 min to allow the liver tissue to be shredded and homogenized. After the completion of tissue lysis, the unwanted tissue debris and supernatant were removed by the micro-pillars as the homogenized tissue lysate was actuated into the mixing chamber, where the lysate was mixed with the microbeads for ˜8 mins to allow for mRNA binding.
(§4) The purified mRNA from each mouse liver tissue sample was collected in an EPPENDORF® tube preloaded with an RT-PCR master mix. To validate the efficacy of our sample preparation microfluidic chip, purified mRNA solutions extracted using our microfluidic chip was tested for their purity using the NANODROP™ 2000 (THERMOSCIENTIFIC®, Singapore), to ensure an A260/280 ratio of ˜2.0-2.2 before proceeding to the subsequent downstream applications of RT-PCR and nucleic acid detection.
(§5) Once the purified mRNA had been extracted from the liver tissue samples, 30 μL of the purified mRNA extract (i.e. elution buffer with the microbeads) was collected in an EPPENDORF® tube containing the following RT-PCR composition: 75 μL 2× SYBR Green RT-PCR reaction mix (BIORAD®, Singapore), 3.0 μL iSCRIPT™ One-Step RT-PCR reverse transcriptase (BIORAD®, Singapore) and 42 μL nuclease-free water. This 150 μL final RT-PCR assay was subsequently transferred from the EPPENDORF® tube into a 250 μL HAMILTON® glass syringe connected to the RT-PCR microfluidic chip via a 1/32″ OD tubing.
(§6) The chip-compatible thermal cycler was based on the open-source OpenPCR® (Chai Biotechnologies, USA) platform, using a custom-designed aluminium metal block for contact-based thermal cycling and an ARDUINO® microcontroller for precise temperature control (see FIG. 17—schematic diagram 1700 illustrating the multiplex microfluidic real-time RT-PCR setup). […]

[2] = tested on: AST mRNA; conditions: mouse liver tissue
Procedure: as §1, §2, §3, §4, §5, §6

[3] = tested on: β-actin mRNA (housekeeping gene); conditions: after 1× and 3× drug dosage (200 mg/kg body wt.); mouse liver tissue
Procedure: as §1, §2, §3, §4, §5, §6

[4] = tested on: ALT mRNA; conditions: for mean Ct (± S.D.), ALT: 3× dosage
Procedure: as §1, §2, §5
(§7) The chip-compatible thermal cycler was based on the open-source OpenPCR® (Chai Biotechnologies, USA) platform, using a custom-designed aluminium metal block for contact-based thermal cycling and an ARDUINO® microcontroller for precise temperature control (see FIG. 17—schematic diagram 1700 illustrating the multiplex microfluidic real-time RT-PCR setup).
(§8) To provide a benchmark reference to the chip disclosed herein, the same RT-PCR assays (with addition of forward/reverse primers at 0.5 μM concentration) were amplified separately in EPPENDORF® tubes on a conventional CFX96 TOUCH™ Real-Time PCR Detection System (BIORAD®, USA).
(§9) The thermal cycling process was as follows: 70° C. for 2 mins to allow dehybridization of the captured mRNA from the microbeads, followed by 50° C. for 10 minutes for reverse transcription, subsequently with an initial denaturation step of 95° C. for 5 mins and finally 35 cycles of PCR, comprising two stages: denaturation at 95° C. for 10 s and annealing/extension at 55° C. for 30 s.
(§10) To enable simultaneous fluorescent detection of amplified cDNA for a fully-quantitative methodology, the inventors developed an image capturing system embodying a camera module with blue excitation LEDs to be mounted on the chip-compatible thermal cycler disclosed herein (FIG. 19—RT-PCR and fluorescent detection setup 1900). A 3MP CMOS camera with mounted 550 nm longpass optical filter (ISLAND OPTICAL SYSTEMS®, Singapore) was fitted onto a black opaque acrylic frame with a 470 nm blue LED module (IORODEO®, USA) to provide an excitation source for the SYBR Green 1 fluorescent dye present in the RT-PCR assay. The blue LED module was affixed at an angle of ˜45° to the plane of the microfluidic chip to minimize excitation light interference on the captured light pathway of the camera unit.

[5] = tested on: AST mRNA; conditions: for mean Ct (± S.D.), AST: 3× dosage
Procedure: as §1, §2, §5, §7, §8, §9, §10

[6] = tested on: β-actin mRNA (housekeeping gene); conditions: 3× dosage; conventional qPCR machine CFX96 Touch; control 22.93 ± 0.11
Procedure: as §1, §2, §5, §7, §8, §9, §10

[7] = 1× drug dosage (200 mg/kg body wt., intraperitoneal, day 1 only)
[8] = 3× drug dosage (200 mg/kg body wt., intraperitoneal, days 1, 3, 5), normalized to untreated control
[9] = 3× dosage vs untreated control, Livak ΔΔCt method, normalized to β-actin, microfluidic data

O=P1(N(CCCl)CCCl)NCCCO1 (stereo not drawn) [cyclophosphamide]
difference in final cDNA concentration (ALT) compared to untreated control [1, 7]: no significant difference
increase in final cDNA concentration for ALT [1, 8]: 33.3%
difference in final cDNA concentration (AST) compared to untreated control [2, 7]: no significant difference
increase in final cDNA concentration for AST [2, 8]: 58.7%
β-actin mRNA expression levels [3]: remained relatively unchanged
normalized fold change (up-regulation) for ALT [4, 9]: 1.31 fold
mean Ct (± S.D.), ALT ([4]; Microfluidic Chip, control 28.8 ± 0.2): 28.5 and 28.5 ± 0.3
mean Ct (± S.D.), ALT ([4]; conventional qPCR machine CFX96 Touch, control 27.28 ± 0.10): 26.75 ± 0.07
normalized fold change (up-regulation) for AST [5, 9]: 1.62 fold
mean Ct (± S.D.), AST ([5]; Microfluidic Chip, control 20.5 ± 0.2): 19.9 and 19.9 ± 0.2
mean Ct (± S.D.), AST ([5]; conventional qPCR machine CFX96 Touch, control 20.07 ± 0.02): 19.34 ± 0.05
mean Ct (± S.D.), β-actin [6]: 23.02 ± 0.08
